Measurements as given in ChEMBL document CHEMBL1133777, “De novo design of a novel oxazolidinone analogue as a potent and selective alpha1A adrenergic receptor antagonist with high oral bioavailability” (J Med Chem, 2000).

Columns and labels:
[1] = Oral bioavailability in rat; assay type: ADME, organism-based; conditions: in vivo
[2] = target: T1, Alpha-2C adrenergic receptor (Homo sapiens, UniProt P18825); assay: Binding affinity towards human alpha-2C-adrenergic receptor, using [3H]rauwolscine as radioligand.
T1 sequence (P18825 whole entry): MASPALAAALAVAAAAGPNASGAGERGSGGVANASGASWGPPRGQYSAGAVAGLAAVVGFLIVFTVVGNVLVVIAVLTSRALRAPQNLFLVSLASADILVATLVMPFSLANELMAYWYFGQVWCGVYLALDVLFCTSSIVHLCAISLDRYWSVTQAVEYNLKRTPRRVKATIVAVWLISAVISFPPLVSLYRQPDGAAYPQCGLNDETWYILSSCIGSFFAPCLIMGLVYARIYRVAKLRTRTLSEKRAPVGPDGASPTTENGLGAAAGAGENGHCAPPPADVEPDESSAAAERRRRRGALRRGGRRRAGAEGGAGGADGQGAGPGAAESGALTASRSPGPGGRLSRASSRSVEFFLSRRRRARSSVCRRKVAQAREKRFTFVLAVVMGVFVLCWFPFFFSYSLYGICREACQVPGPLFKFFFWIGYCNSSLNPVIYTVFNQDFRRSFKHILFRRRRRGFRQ

[3] = Half-life in rat; assay type: ADME, organism-based; conditions: in vivo
[4] = Oral bioavailability in dog; assay type: ADME, organism-based, Canis lupus familiaris; conditions: in vivo
[5] = target: 5-hydroxytryptamine receptor 1B (Homo sapiens, UniProt P28222); assay: Binding affinity towards 5-hydroxytryptamine 1B receptor using [3H]5-HT as radioligand.
Canis familiaris [6] = assay: In vivo for selective antagonistic activity against intra-urethral pressure in dog, using phenylephrine as agonist; assay type: functional, Canis lupus familiaris, Urethra
[7] = target: 5-hydroxytryptamine receptor 1D (Homo sapiens, UniProt P28221); assay: Binding affinity towards 5-HT1D receptor, using [3H]5-HT as radioligand.
[8] = target: T2, Alpha-2B adrenergic receptor (Homo sapiens, UniProt P18089); assay: Binding affinity towards human alpha-2B-adrenergic receptor, using [3H]rauwolscine as radioligand.
T2 sequence (P18089 whole entry): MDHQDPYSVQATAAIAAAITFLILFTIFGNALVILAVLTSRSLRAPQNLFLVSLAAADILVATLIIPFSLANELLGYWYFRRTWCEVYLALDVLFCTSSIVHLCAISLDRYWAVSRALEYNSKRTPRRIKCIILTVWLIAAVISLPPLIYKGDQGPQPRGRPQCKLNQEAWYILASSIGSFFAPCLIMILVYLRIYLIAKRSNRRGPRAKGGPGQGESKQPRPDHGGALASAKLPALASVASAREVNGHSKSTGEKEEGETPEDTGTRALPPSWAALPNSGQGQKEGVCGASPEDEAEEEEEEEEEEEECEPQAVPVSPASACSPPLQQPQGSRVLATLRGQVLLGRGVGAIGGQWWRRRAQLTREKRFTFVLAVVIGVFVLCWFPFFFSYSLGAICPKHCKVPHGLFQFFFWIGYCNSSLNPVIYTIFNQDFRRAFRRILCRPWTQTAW

Rattus norvegicus [9] = species on record: Rattus norvegicus; assay: In vitro inhibition of norepinephrine induced contractions in isolated rat aorta; assay type: functional
Histamine H2 receptor = Histamine H2 receptor (Homo sapiens, UniProt P25021); assay: Binding affinity towards human Histamine H2 receptor, using [3H]tiotidine as radioligand.
[10] = target: T3, Alpha-1B adrenergic receptor (Homo sapiens, UniProt P35368); assay: Binding affinity towards Alpha1B human adrenergic receptors, using [125I]HEAT as radioligand.
T3 sequence (P35368 whole entry): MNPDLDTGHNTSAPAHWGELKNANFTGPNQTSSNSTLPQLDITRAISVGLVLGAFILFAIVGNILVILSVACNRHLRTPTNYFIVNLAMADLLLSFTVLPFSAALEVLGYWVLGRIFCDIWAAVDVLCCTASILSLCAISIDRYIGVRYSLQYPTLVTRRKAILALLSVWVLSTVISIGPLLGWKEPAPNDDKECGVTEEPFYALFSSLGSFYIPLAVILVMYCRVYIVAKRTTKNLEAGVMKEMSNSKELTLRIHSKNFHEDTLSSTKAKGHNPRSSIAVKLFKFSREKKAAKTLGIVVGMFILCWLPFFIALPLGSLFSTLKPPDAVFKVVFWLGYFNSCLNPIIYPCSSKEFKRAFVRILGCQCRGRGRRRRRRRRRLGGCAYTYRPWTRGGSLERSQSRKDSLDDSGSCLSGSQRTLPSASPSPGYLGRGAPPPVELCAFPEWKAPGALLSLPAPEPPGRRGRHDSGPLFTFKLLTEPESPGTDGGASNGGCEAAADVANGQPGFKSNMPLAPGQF

[11] = target: T4, Alpha-2A adrenergic receptor (Homo sapiens, UniProt P08913); assay: Binding affinity towards human alpha-2A-adrenergic receptor, using [3H]rauwolscine as radioligand.
T4 sequence (P08913 whole entry): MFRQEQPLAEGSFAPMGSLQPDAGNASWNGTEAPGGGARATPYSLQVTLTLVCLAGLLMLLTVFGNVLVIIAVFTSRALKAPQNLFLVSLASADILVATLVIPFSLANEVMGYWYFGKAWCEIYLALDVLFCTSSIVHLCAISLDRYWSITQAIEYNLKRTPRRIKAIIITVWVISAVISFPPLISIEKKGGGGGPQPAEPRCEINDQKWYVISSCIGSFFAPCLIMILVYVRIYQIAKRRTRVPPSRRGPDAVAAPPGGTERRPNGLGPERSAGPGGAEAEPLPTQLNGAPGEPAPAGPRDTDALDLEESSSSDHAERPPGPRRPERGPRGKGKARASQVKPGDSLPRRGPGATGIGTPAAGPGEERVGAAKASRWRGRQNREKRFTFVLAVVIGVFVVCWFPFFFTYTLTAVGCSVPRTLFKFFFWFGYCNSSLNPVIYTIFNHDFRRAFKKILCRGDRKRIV

[12] = target: T5, Alpha-1B adrenergic receptor (Rattus norvegicus, UniProt P15823); assay: Binding affinity towards Alpha1B rat adrenergic receptors, using [125I]HEAT as radioligand.
T5 sequence (P15823 whole entry): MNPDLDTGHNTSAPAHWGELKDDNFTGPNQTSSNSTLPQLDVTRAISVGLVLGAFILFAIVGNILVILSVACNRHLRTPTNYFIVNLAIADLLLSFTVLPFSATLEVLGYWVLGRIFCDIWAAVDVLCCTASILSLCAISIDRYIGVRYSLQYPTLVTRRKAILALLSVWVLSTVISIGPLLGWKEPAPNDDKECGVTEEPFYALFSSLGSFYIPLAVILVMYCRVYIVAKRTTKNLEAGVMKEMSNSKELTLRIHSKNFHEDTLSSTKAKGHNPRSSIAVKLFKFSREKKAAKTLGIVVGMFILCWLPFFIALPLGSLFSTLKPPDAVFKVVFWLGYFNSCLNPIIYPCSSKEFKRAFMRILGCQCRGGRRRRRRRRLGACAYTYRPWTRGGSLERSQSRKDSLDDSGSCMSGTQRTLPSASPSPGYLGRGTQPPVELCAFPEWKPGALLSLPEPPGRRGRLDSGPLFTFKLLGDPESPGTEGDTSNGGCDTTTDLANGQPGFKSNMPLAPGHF

[13] = target: T6, Alpha-1D adrenergic receptor (Rattus norvegicus, UniProt P23944); assay: Binding affinity towards Alpha1D rat adrenergic receptors, using [125I]HEAT as radioligand.
T6 sequence (P23944 whole entry): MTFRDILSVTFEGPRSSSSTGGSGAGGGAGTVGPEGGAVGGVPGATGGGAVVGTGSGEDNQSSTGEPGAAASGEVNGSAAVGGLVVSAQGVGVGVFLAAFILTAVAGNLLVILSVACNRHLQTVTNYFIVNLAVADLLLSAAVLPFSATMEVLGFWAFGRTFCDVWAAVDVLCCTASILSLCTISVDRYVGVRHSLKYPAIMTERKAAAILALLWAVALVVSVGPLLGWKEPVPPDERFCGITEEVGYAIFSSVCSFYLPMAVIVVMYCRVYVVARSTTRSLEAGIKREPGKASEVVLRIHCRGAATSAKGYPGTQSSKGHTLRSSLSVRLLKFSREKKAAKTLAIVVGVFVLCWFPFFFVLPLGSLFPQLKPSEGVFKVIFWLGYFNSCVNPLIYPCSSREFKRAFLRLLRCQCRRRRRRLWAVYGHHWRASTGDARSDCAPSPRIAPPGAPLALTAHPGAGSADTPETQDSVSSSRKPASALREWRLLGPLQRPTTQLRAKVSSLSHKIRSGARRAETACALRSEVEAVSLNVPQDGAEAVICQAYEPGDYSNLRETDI

Rattus norvegicus [14] = species on record: Rattus norvegicus; assay: In vitro inhibition of A-61603 induced contractions in rat prostate tissue; assay type: functional; conditions: Prostate gland
Rattus norvegicus [15] = assay: Compound was tested in situ for the inhibition of phenylephrine-induced contractions in anesthetized rat; assay type: functional
[16] = target: Voltage-gated L-type calcium channel (Rattus norvegicus, UniProt P22002+Q02485+P27732); assay: Inhibition of [3H]nitrendipine binding to rat L-type Ca-channel receptor; assay type: protein assay
Canis familiaris [17] = species on record: Canis familiaris; assay: In vitro inhibition of phenylephrine induced contractions in dog prostate tissue; assay type: functional; conditions: Canis lupus familiaris, Prostate gland
[18] = target: T7, 5-hydroxytryptamine receptor 1A (Mus musculus, UniProt Q64264); assay: Binding affinity towards 5-hydroxytryptamine 1A receptor receptor, using [3H]5-HT as radioligand.
T7 sequence (Q64264 whole entry): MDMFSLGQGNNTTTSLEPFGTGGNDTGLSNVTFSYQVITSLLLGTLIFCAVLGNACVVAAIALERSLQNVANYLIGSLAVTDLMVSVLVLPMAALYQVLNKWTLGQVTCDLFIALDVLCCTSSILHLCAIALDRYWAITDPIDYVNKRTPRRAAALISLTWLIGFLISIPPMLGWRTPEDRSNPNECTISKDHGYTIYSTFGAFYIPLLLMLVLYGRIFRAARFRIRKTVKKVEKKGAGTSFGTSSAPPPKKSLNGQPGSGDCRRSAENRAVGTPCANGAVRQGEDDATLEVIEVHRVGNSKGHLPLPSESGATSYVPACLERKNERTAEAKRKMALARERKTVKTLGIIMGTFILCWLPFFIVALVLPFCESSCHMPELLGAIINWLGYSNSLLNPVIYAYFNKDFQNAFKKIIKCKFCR

Histamine H1 receptor = Histamine H1 receptor (Homo sapiens, UniProt P35367); assay: Binding affinity towards Histamine H1 receptor in human brain tissue preparation, using [3H]pyrilamine as radioligand.
[19] = target: T8, Alpha-1D adrenergic receptor (Homo sapiens, UniProt P25100); assay: Binding affinity towards Alpha1D human adrenergic receptors, using [125I]HEAT as radioligand.
T8 sequence (P25100 whole entry): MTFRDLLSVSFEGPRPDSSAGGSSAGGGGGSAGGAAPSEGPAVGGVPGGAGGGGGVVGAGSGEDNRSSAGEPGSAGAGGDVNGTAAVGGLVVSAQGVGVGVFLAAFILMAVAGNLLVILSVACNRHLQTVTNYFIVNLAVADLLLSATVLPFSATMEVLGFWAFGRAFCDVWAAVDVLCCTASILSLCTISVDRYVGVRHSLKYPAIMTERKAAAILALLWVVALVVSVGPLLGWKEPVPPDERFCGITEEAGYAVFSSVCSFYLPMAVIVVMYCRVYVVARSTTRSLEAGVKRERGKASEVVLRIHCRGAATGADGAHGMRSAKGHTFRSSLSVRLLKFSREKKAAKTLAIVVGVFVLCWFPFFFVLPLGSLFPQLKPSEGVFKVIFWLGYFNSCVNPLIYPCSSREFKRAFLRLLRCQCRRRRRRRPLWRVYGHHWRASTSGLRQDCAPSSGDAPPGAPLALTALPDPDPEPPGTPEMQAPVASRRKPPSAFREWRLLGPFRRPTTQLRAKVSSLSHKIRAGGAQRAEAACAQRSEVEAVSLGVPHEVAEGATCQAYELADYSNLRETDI

[20] = target: 5-hydroxytryptamine receptor 2A (Homo sapiens, UniProt P28223); assay: Binding affinity towards 5-hydroxytryptamine 2A receptor using [3H]5-HT as radioligand.
[21] = Half-life in dog; assay type: ADME, organism-based, Canis lupus familiaris; conditions: in vivo
Homo sapiens = species on record: Homo sapiens; assay: In vitro inhibition of A-61603 induced contractions in human prostate tissue; assay type: functional; conditions: Prostate gland
Canis familiaris [22] = assay: In vivo for selective antagonistic activity against diastolic blood pressure in dog, using phenylephrine as agonist; assay type: functional, Canis lupus familiaris, Artery

5-hydroxytryptamine receptor 2A, sequence (P28223 whole entry): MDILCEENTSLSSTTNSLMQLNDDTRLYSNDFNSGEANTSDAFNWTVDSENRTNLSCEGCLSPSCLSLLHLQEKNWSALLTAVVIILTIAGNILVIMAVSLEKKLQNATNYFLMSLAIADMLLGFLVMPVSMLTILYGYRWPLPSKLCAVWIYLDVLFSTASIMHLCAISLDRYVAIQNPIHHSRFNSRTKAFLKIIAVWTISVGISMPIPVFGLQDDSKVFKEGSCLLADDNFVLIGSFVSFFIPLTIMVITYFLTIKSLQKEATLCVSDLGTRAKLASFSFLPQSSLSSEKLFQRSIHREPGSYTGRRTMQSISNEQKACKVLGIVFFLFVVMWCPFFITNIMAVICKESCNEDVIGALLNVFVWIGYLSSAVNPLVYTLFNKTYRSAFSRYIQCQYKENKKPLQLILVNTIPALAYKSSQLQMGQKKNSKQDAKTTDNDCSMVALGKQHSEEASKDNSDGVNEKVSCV
Histamine H1 receptor, sequence (P35367 whole entry): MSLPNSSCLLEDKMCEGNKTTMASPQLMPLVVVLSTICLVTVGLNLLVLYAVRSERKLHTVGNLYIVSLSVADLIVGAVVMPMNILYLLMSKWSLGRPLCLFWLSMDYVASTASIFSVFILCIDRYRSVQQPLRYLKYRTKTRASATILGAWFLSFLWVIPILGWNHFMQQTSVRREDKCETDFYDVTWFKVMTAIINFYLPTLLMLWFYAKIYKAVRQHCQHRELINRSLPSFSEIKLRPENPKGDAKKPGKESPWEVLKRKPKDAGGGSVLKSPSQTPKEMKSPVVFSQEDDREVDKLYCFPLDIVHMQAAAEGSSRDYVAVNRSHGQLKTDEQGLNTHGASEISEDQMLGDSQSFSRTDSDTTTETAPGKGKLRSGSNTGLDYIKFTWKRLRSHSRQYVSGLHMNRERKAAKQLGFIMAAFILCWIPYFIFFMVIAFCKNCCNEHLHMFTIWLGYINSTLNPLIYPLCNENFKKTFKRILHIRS
Histamine H2 receptor, sequence (P25021 whole entry): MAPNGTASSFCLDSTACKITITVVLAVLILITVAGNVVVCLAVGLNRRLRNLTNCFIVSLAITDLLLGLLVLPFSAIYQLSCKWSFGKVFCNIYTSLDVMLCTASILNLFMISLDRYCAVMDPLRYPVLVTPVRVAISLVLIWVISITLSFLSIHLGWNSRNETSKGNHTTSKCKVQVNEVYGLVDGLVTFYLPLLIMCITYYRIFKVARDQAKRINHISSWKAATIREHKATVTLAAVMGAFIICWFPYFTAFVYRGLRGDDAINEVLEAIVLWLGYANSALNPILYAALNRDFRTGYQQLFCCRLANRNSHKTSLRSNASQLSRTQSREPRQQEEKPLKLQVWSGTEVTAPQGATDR
5-hydroxytryptamine receptor 1B, sequence (P28222 whole entry): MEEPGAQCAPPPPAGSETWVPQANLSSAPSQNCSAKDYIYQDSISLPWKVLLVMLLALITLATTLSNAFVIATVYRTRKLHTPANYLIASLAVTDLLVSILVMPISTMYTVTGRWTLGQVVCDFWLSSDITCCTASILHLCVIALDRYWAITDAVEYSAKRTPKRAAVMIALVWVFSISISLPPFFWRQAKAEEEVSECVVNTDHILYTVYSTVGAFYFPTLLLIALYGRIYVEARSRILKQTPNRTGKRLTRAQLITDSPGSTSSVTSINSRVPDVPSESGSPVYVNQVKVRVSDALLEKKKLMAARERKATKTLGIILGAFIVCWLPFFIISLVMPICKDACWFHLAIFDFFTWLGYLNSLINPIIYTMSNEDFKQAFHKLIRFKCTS
5-hydroxytryptamine receptor 1D, sequence (P28221 whole entry): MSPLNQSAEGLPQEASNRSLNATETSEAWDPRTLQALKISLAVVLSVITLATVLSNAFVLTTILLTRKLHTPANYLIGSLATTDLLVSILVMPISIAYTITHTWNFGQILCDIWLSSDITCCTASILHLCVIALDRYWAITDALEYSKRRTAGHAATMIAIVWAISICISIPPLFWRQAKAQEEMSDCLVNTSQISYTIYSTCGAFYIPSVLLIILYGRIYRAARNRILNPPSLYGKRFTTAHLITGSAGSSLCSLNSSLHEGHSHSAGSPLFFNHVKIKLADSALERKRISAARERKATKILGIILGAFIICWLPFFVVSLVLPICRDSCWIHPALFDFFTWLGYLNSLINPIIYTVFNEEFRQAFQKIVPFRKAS

With `C[C@@H]1OC(=O)N(C(=O)NCCCN2CCC(c3ccc(F)cc3)CC2)[C@H]1c1ccc(F)c(F)c1` the bioavailability [1] was 25%, the Ki [2] was greater than 45 nM and the half-life [3] was 6 h. It also gave a bioavailability [4] of 74%, a Ki [5] greater than 500 nM and a Kb (Canis familiaris [6]) of 3 µg/kg. It also gave a Ki [7] greater than 500 nM, a Ki [8] greater than 45 nM and a Kb (Rattus norvegicus [9]) greater than 1000 nM. For the same compound, the Ki (Histamine H2 receptor) was greater than 1000 nM, the Ki [10] was 119 nM and the Ki [11] was greater than 45 nM. It also gave a Ki [12] of 79 nM, a Ki [13] of 62 nM and a Kb (Rattus norvegicus [14]) of 0.26 nM. For the same compound, the AD50 (Rattus norvegicus [15]) was 0.012 mg/kg, the Ki [16] was greater than 1000 nM and the Kb (Canis familiaris [17]) was 0.33 nM. For the same compound, the Ki [18] was greater than 500 nM, the Ki (Histamine H1 receptor) was 54 nM and the Ki [19] was 122 nM. The Ki [20] was greater than 500 nM, the half-life [21] was greater than 12 h and the Kb (Homo sapiens) was 0.1 nM. It also gave a DBP15 (Canis familiaris [22]) greater than 300 µg/kg.

For `COc1cc2nc(N3CCN(C(=O)C4CCCO4)CC3)nc(N)c2cc1OC` (configuration not stated) [TERAZOSIN], the Kb (Canis familiaris [6]) was 16 µg/kg, the Kb (Rattus norvegicus [9]) was 19 nM and the Kb (Rattus norvegicus [14]) was 25 nM. For the same compound, the AD50 (Rattus norvegicus [15]) was 0.052 mg/kg, the Kb (Canis familiaris [17]) was 130 nM and the Kb (Homo sapiens) was 25 nM. It also gave a DBP15 (Canis familiaris [22]) of 72 µg/kg.
